For this experiment, the system named is sweet taste. Briefly: Sensory testing by a group of about 5 panelists (sweetness, licorice taste, lingering aftertaste). It counts as in vivo. The settings on record: for Lingering: panelists' rating of lingering aftertaste on a scale from 1 to 10; for Licorice / Sweet: panelists' rating on a scale from 1 to 10. As for the experimental part: Sensory testing was conducted by a group of about 5 panelists. […] The panelists rated the sweetness, licorice taste, and lingering aftertaste of Isomogroside IVE in comparison to Mogroside V on a scale from 1 to 10.

As for `C[C@H](CC[C@@H](O[C@@H]1O[C@H](CO)[C@@H](O)[C@H](O)[C@H]1O[C@@H]1O[C@H](CO)[C@@H](O)[C@H](O)[C@H]1O)C(C)(C)O)[C@H]1CC[C@@]2(C)[C@@H]3CC=C4[C@@H](CC[C@H](O[C@@H]5O[C@H](CO)[C@@H](O[C@@H]6O[C@H](CO)[C@@H](O)[C@H](O)[C@H]6O)[C@H](O)[C@H]5O)C4(C)C)[C@]3(C)[C@H](O)C[C@]12C` [Isomogroside IVE, (1S,4R,9beta,11alpha,24R)-1-{[4-O-(beta-D-glucopyranosyl)-beta-D-glucopyranosyl]oxy}-11,25-dihydroxy-9,10,14-trimethyl-4,9-cyclo-9,10-secocholest-5-en-24-yl 2-O-beta-D-glucopyranosyl-beta-D-glucopyranoside], under “250 ppm, panelists' perception”, the “licorice taste and lingering aftertaste in comparison to Mogroside V” value is “no statistically significant difference”; the “sweetness in comparison to Mogroside V” value was “somewhat sweeter than Mogroside V”. Under “250 ppm”, this molecule registered a Lingering of 5.4, a Licorice of 4.5 and a Sweet of 7.0. Further, for the setting “tasted at 250 ppm in a water base”, the “times sweeter than sucrose” value was 200-300 times.
On to `C[C@H](CC[C@@H](O[C@@H]1O[C@H](CO[C@@H]2O[C@H](CO)[C@@H](O)[C@H](O)[C@H]2O)[C@@H](O)[C@H](O)[C@H]1O[C@@H]1O[C@H](CO)[C@@H](O)[C@H](O)[C@H]1O)C(C)(C)O)[C@H]1CC[C@@]2(C)[C@@H]3CC=C4[C@@H](CC[C@H](O[C@@H]5O[C@H](CO[C@@H]6O[C@H](CO)[C@@H](O)[C@H](O)[C@H]6O)[C@@H](O)[C@H](O)[C@H]5O)C4(C)C)[C@]3(C)[C@H](O)C[C@]12C` [Mogroside V, reference compound], for which, for the setting “250 ppm”, the Lingering is on record as 4.6, the Licorice turned out to be 3.7 and the Sweet amounted to 5.1.

The values above are taken from patent US20220017564A1, “MOGROSIDE COMPOUNDS AND USES THEREOF” (Firmenich SA, priority 2019, published 2022).
